Activity calls are given as the source filed them.
Columns and labels:
Cytochrome P450 2D6 = Cytochrome P450 2D6 (Homo sapiens, UniProt P10635);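 further: CYP2D6 member of a cytochrome P450 panel assay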
Cytochrome P450 2C19 = Cytochrome P450 2C19 (Homo sapiens, UniProt P33261); experiment: Cytochrome panel assay with activity outcomes. Panel member name: p450-cyp2c19 Compounds with AC50 equal or less than 10 uM are considered active; assay type: functional
Cytochrome P450 3A4 = Cytochrome P450 3A4 (Homo sapiens, UniProt P08684);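 further: CYP3A4 tested as one member of a cytochrome P450 panel screen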
Protein RecA = biological target: T1, Protein RecA (Mycobacterium tuberculosis, UniProt P9WHJ3); experiment: Fluorescence Cell-Free Homogeneous Dose Retest to Identify Inhibitors of RecA-Intein Splicing Activity. [Related pubchem assays (depositor defined):AID2097, AID2223, AID489010, AID492950]; assay type: functional
T1 sequence (P9WHJ3 whole entry): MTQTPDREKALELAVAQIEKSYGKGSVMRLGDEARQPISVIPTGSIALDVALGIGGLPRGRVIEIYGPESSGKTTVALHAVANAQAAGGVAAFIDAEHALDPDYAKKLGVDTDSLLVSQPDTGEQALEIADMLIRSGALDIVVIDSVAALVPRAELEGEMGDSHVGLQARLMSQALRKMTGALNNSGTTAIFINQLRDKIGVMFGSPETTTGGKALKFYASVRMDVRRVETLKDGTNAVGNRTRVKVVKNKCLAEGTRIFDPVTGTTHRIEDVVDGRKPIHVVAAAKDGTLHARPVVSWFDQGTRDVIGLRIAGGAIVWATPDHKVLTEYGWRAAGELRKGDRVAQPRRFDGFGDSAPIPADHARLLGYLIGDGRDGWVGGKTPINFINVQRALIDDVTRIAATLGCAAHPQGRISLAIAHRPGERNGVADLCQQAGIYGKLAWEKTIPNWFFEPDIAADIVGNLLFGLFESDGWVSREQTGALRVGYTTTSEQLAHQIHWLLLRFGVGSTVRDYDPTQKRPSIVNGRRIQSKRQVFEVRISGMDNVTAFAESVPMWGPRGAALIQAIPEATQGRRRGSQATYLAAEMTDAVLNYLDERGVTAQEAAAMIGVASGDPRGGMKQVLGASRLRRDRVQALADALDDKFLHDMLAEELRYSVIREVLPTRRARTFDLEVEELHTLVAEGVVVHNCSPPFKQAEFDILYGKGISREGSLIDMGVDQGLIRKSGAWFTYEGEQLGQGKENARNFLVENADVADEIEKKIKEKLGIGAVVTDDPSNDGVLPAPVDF

[1] = biological target: T2, Replicative DNA helicase DnaB (Mycobacterium tuberculosis, UniProt P9WMR3); experiment: DnaB intein splicing inhibitors, dose response, biochemical, cell-free fluorescence (AID 449749); assay type: functional
T2 sequence (P9WMR3 whole entry): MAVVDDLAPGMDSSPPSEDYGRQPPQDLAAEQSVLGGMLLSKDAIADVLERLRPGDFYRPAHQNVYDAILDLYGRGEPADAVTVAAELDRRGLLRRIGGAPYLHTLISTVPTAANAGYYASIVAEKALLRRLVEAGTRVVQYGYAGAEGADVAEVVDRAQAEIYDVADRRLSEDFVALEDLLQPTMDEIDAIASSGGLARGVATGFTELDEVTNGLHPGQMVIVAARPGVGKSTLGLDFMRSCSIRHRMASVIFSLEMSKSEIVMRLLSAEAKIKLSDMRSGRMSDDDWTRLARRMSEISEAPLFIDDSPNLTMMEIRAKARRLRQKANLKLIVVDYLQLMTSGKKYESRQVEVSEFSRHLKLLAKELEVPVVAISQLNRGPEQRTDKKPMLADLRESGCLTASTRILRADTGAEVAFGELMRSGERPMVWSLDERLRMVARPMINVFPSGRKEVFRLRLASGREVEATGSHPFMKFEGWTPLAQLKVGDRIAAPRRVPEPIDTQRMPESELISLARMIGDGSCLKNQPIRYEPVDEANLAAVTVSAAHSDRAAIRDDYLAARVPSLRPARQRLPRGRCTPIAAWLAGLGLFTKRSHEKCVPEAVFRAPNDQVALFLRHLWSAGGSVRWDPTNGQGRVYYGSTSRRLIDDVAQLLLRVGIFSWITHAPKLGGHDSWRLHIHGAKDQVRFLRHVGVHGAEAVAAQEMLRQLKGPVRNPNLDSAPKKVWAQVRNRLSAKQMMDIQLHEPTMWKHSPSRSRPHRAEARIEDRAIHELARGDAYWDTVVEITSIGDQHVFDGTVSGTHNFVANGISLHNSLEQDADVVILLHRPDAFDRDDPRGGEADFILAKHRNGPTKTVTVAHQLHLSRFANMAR

cells [2] = assay type: functional, cell-based
cells [3] = assay type: functional, cell-based; remark: listed apart in the source
[4] = Luminescence Cell-Based Dose Confirmation HTS to Identify Inhibitors of Platelet Dense Granule Release. [Related pubchem assays: 1663 (Primary HTS), 1678 (Summary of Project)]; assay type: functional
[5] = biological target: Luciferin 4-monooxygenase (Photinus pyralis, UniProt P08659); experiment: inhibition of purified Photinus pyralis luciferase – biochemical, luminescence, dose response (AID 1891)
[6] = non-specific 3'UTR reporter inhibition in Clone20-Shn3RL – cell-based, Renilla luciferase, cherry-picked, counter-screen for Shn3 inhibitor project, dose response (AID 624133); assay type: functional
[7] = loss of viability in HepG2 cells – cell-based, CellTiter-Glo, cherry-picked, cytotoxicity control for Shn3 inhibitor project, dose response (AID 624134); assay type: functional
[8] = reduction of Shn3 3'UTR-driven luciferase in osteoblasts – cell-based, Clone20 osteoblasts, firefly luciferase, cherry-picked, dose response (AID 624132); assay type: functional;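 further: firefly luciferase luminescence from reporter carrying the Shn3 3'UTR in osteoblasts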
Cytochrome P450 1A2 = biological target: T3, Cytochrome P450 1A2 (Homo sapiens, UniProt P05177);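 further: PubChem cytochrome P450 panel assay, CYP1A2 panel member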
T3 sequence (P05177 whole entry): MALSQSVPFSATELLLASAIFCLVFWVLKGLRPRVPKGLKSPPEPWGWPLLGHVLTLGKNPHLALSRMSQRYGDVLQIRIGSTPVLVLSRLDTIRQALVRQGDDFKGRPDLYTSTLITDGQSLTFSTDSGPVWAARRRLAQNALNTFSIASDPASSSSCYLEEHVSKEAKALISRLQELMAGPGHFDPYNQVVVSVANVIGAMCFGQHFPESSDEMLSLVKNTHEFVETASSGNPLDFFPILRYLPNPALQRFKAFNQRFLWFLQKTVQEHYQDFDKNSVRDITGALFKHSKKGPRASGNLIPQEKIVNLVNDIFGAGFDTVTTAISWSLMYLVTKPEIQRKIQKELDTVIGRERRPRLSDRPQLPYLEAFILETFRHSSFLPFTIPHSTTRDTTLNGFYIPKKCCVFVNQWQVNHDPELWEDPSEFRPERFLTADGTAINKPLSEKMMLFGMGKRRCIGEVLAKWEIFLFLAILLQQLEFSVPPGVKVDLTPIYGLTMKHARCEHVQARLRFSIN

H4 = experiment: Luminescence Cell-Based Dose Response HTS to Identify Activators of 5'UTR Stem-Loop Driven Prion Protein mRNA Translation in H4 Neuroglioblastoma Cells. [Related pubchem assays: 1829 (Project Summary), 1814 (Primary HTS)]; assay type: functional; conditions: Homo sapiens
[9] = Luminescence Cell-Based Dose Confirmation HTS to Identify Activators of 5'UTR Stem-Loop Driven Alpha-Synuclein mRNA Translation in H4 Neuroglioblastoma Cells. [Related pubchem assays: 1829 (Project Summary), 1814 (Primary HTS)]; assay type: functional
[10] = Luminescence Cell-Based Dose Response HTS to Identify Activators of Luciferase Translation or Activity in H4 […] Cells. [Related pubchem assays: 1829 (Project Summary), 1814 (Primary HTS)]; assay type: functional
[11] = NIH3T3 cell viability loss – ATP luminescence, mouse fibroblasts, counter-screen, dose response (AID 2010); assay type: functional, cell-based;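 further: cells exposed to compound for about 90 hours before reading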
[12] = Trypanosoma cruzi growth suppression in host cells – NIH3T3 host cells, beta-gal luminescence, confirmation (AID 2044); assay type: functional, cell-based;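 further: intracellular parasites grown in NIH/3T3 mouse fibroblasts as host cells; luminescent beta-galactosidase reporter signal from transgenic T. cruzi replicating inside host cells; inhibitors lower the luminescence signal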
[13] = alpha-synuclein stem-loop luciferase translation blockers – H4 neuroglioma cells, luminescence, confirmation (AID 1988); assay type: functional, cell-based
[14] = Luminescence Cell-Based Dose Response HTS to Identify Inhibitors of 5'UTR Stem-Loop Driven Prion Protein mRNA Translation in H4 Neuroglioblastoma Cells. [Related pubchem assays: 1827 (Project Summary), 1813 (Primary HTS)]; assay type: functional

Sequence of Cytochrome P450 2C19 (P33261 whole entry): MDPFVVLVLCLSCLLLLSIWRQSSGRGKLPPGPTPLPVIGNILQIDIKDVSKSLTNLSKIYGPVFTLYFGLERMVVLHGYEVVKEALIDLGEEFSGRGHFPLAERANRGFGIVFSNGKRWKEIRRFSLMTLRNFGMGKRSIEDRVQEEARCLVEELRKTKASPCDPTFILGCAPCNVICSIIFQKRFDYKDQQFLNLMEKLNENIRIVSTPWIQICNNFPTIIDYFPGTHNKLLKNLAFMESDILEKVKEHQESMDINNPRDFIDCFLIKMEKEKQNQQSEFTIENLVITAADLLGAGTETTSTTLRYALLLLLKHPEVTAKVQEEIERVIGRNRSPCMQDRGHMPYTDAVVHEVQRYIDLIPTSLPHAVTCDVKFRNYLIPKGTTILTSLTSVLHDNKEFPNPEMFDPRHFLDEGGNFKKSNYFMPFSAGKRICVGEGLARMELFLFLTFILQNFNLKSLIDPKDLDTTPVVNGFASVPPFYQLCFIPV
Sequence of Cytochrome P450 2D6 (P10635 whole entry): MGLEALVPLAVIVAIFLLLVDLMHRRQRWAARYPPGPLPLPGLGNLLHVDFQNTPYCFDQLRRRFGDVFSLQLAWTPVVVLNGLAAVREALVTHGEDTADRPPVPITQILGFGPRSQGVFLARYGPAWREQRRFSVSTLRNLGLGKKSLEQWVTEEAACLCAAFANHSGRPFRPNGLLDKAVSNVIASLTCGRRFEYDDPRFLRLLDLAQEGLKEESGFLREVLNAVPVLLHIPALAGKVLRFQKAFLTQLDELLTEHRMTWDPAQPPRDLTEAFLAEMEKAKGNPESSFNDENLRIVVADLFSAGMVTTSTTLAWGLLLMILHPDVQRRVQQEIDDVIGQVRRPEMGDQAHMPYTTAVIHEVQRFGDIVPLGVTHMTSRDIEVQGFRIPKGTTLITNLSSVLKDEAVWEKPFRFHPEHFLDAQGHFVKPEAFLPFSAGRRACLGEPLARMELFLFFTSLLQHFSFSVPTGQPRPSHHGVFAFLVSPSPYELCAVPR
Sequence of Luciferin 4-monooxygenase (P08659 whole entry): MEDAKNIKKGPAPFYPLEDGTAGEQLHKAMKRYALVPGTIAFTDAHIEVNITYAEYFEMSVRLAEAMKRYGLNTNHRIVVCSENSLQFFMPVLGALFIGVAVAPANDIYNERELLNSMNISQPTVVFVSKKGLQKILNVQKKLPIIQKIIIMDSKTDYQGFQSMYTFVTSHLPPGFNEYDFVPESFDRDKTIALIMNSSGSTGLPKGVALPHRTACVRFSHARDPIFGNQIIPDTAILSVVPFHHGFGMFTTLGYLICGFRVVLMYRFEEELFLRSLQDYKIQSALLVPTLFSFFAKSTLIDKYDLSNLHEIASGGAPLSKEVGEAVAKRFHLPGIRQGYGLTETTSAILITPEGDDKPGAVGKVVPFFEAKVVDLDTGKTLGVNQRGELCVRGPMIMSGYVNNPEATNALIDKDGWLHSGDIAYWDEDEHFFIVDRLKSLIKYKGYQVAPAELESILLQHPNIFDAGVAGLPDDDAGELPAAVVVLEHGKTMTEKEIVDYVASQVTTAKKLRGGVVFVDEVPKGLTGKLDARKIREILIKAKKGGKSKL
Sequence of Cytochrome P450 3A4 (P08684 whole entry): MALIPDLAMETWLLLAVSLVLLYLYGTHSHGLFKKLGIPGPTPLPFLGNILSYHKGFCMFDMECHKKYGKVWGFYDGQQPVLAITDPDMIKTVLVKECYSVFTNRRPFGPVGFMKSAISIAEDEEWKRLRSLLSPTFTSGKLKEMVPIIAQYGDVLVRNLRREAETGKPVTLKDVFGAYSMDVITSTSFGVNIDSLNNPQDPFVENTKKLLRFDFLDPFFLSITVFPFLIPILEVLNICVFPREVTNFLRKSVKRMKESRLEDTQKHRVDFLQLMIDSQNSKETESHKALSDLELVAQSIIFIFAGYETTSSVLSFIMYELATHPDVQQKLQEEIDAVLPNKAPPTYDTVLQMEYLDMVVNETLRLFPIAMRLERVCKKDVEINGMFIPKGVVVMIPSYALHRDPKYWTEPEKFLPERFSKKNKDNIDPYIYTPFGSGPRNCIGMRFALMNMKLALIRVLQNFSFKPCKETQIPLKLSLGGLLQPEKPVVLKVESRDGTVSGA

Cc1ccc(CS(=O)(=O)CCC(=O)NCCN2CCCC2)cc1
AC50 (Cytochrome P450 2D6): 0.1 µM (inconclusive) | AC50 (Cytochrome P450 2C19; read-out: AC50): 39.8 µM (inconclusive) | AC50 (Cytochrome P450 3A4): 25.1 µM (inconclusive)

COc1ccc(/C=C2/C(=O)N(c3ccccc3)N=C2C)cc1
EC50 (Protein RecA): 1.7 µM (active) | AC50 [1]: 4.44 µM (active)

O=C1CSCN1c1ccc(Cl)cc1
EC50 (cells [2]): > 350 µM (not active) | EC50 (cells [3]): > 350 µM (not active)

COc1cc(C2(c3ccc(O)c(OC)c3)C(=O)Nc3c(C)cc(Br)cc32)ccc1O
EC50 (Protein RecA): 14.4 µM (active) | AC50 [1]: 5.77 µM (active)

O=C(CN(Cc1ccccc1Cl)C(=O)c1ccc(CN2CCOCC2)o1)NCc1ccccc1
EC50 [4]: 62.6 µM (active) | EC50 [5]: > 112 µM (not active)

FC(F)(F)c1ccccc1-c1nccc(NCCN2CCOCC2)n1
AC50 (Cytochrome P450 2D6): 12.6 µM (inconclusive) | AC50 (Cytochrome P450 2C19; read-out: AC50): 6.31 µM (inconclusive)

Cc1nn(-c2ccccc2)c2c1C(c1ccncc1)C(C#N)=C(N)O2 (stereo unspecified)
EC50 (Protein RecA): 3.05 µM (active) | AC50 [1]: 12.7 µM (active)

CCCCCC(=O)O[C@]1(C(C)=O)CC[C@H]2[C@@H]3CCC4=CC(=O)CC[C@]4(C)[C@H]3CC[C@@]21C [HYDROXYPROGESTERONE CAPROATE]
EC50 (Protein RecA): 4.88 µM (active) | AC50 [1]: 11.9 µM (active)

NC(=O)CC(NC(=O)c1ccc(Br)cc1)c1ccc(N2CCC(Br)CC2)c([N+](=O)[O-])c1 (stereo unspecified)
AC50 [6]: 17.5 µM (active) | AC50 [7]: 62.8 µM (active) | AC50 [8]: 4.19 µM (active)

Cc1cccc(CNc2cc(-c3ccccc3CN(C)C)ncn2)c1
AC50 (Cytochrome P450 2D6): 20 µM (inconclusive) | AC50 (Cytochrome P450 2C19): inconclusive

O=C1Oc2ccccc2C(=O)/C1=C\N1C(=O)N/C(=C\c2ccccc2O)C1=O
AC50 (Cytochrome P450 1A2): 0.316 µM (inconclusive) | AC50 (Cytochrome P450 2D6): 3.98 µM (inconclusive) | AC50 (Cytochrome P450 2C19; read-out: AC50): 6.31 µM (inconclusive) | AC50 (Cytochrome P450 3A4): 3.98 µM (inconclusive)

CCCS(=O)(=O)N1CCCC(C(=O)NCCCN2CCN(c3ccc(F)cc3)CC2)C1 (stereo unspecified)
AC50 (Cytochrome P450 2D6): 5.01 µM (inconclusive)

CCOC(=O)COc1cccc2c(=O)n(CC(=O)N3CCN(C(=O)OCC)CC3)ccc12
EC50 [4]: > 112 µM (not active) | EC50 [5]: > 112 µM (not active)

O=C(N/N=C/c1ccccn1)c1ccc(Br)cc1
EC50 (cells [2]): > 350 µM (not active) | EC50 (cells [3]): 15.2 µM (active)

O=C(O)C1C2CCC(C2)C1C(=O)Nc1ccccc1 (stereo unspecified)
EC50 [4]: > 112 µM (not active) | EC50 [5]: > 112 µM (not active)

Cc1ccc(-n2nc(C)c3c2OC(N)=C(C#N)C3c2cccs2)cc1 (stereo unspecified)
EC50 (H4): > 120 µM (not active) | EC50 [9]: > 120 µM (not active) | EC50 [10]: 33 µM (active) | AC50 [1]: 3.81 µM (active)

C=CCN(c1ccccc1)S(=O)(=O)c1cccc(C(=O)Nc2nc3ccccc3[nH]2)c1
AC50 [6]: 27.8 µM (active) | AC50 [7]: 49.7 µM (active) | AC50 [8]: 10.1 µM (active)

NCCCN1CCN(c2ccccc2)CC1
AC50 (Cytochrome P450 2D6): 3.16 µM (inconclusive)

CC1CCCC(C)N1C(=O)COC(=O)CNC(=O)c1sc2ccccc2c1Cl (stereo unspecified)
EC50 [4]: > 112 µM (not active) | EC50 [5]: > 112 µM (not active)

O=C(c1ccco1)c1cn(CC(=O)N2CCCc3ccccc32)c2ccccc12
EC50 [4]: > 112 µM (not active) | EC50 [5]: > 112 µM (not active)

CCOC(=O)N1CCC(/N=c2/c(-c3ccccc3)c(O)c2=O)CC1
EC50 (cells [2]): > 350 µM (not active) | EC50 (cells [3]): > 350 µM (not active)

C/C(CC(=O)Nc1ccc(F)cc1F)=N\NC(=O)C(=O)N1CCCCC1
EC50 (Protein RecA): 1.8 µM (active) | AC50 [1]: 5 µM (active)

Nc1cccc(-c2nc3ccc(N)cc3s2)c1
EC50 [4]: < 0.701 µM (active) | EC50 [5]: 2.3 µM (active)

CCOC(=O)CSc1nc(=O)c(NCC(=O)OC)n[nH]1
EC50 (Protein RecA): 5.87 µM (active) | AC50 [1]: 12 µM (active)

N=C(N)SCc1cn(-c2ccccc2)nc1-c1ccc(Br)cc1
EC50 (Protein RecA): 11 µM (active) | EC50 [11]: 11.2 µM (active) | EC50 [12]: 1.03 µM (active) | AC50 [1]: 8.68 µM (active)

Cc1cnc(C)c(N2CCN(Cc3nc(-c4ccccc4)no3)CC2)n1
EC50 [4]: > 112 µM (not active) | EC50 [5]: > 112 µM (not active)

Nc1ncnc(N)c1N=Nc1ccccc1
EC50 [13]: 11.2 µM (active) | EC50 [14]: 15.7 µM (active)

C1CCC2(CC1)C1=C(CCCC1)Nc1nnnn12
EC50 (cells [2]): > 350 µM (not active) | EC50 (cells [3]): > 350 µM (not active)

O=C(N1CCN(Cc2ccccc2)CC1)C12CC3CC(CC(C3)C1)C2
EC50 [4]: > 112 µM (not active) | EC50 [5]: > 112 µM (not active)

CCOC(=O)CNC(=O)CSc1nnc(Cn2cnc3ccccc32)n1C
EC50 (cells [2]): > 350 µM (not active) | EC50 (cells [3]): > 350 µM (not active)

CCc1cccc(NC2c3ccccc3C(=O)N2c2cccnc2)c1 (stereo unspecified)
EC50 [4]: > 112 µM (not active) | EC50 [5]: > 112 µM (not active)

CN(C(=O)c1cc(S(=O)(=O)N2CCc3ccccc32)cn1C)C1CCCCC1
EC50 [4]: > 112 µM (not active) | EC50 [5]: > 112 µM (not active)
